Experimental data: ChEMBL document CHEMBL5236566, “Design and synthesis of novel pipernonaline derivatives as anti-austerity agents against human pancreatic cancer PANC-1 cells” (Bioorg Med Chem, 2022)
Activity calls are given as the source filed them. No cut-off for these calls is given here.

Columns and labels:
PANC-1 [1] = assay: Preferential cytotoxicity against human PANC-1 cells assessed as reduction in cell viability incubated for 24 hrs in nutrient-deprived medium by WST-8 assay; assay type: functional
PANC-1 [2] = assay: Cytotoxicity against human PANC-1 cells assessed as reduction in cell viability incubated for 24 hrs in nutrient-rich Dulbecco's modified Eagle's medium by WST-8 assay; assay type: functional, cell-based; settings: PANC-1, 24 h
[3] = Selectivity index, ratio of IC50 for cytotoxicity against human PANC-1 cells in nutrient-rich Dulbecco's modified Eagle's medium to PC50 for preferential cytotoxicity against human PANC-1 cells in nutrient-deprived medium; assay type: toxicity, cell-based
[4] = target: RAC-alpha serine/threonine-protein kinase (Homo sapiens) (UniProt P31749); assay: Inhibition of Akt activation in human PANC-1 cells assessed as effect on total Akt level at 1.25 to 5 uM incubated for 6 hrs in nutrient-deprived medium by Western blot analysis; assay type: cell-based; settings: dose 1.25-5 µM
PANC-1 [5] = assay: Potency index, ratio of pipernonaline PC50 to test compound PC50 for Preferential cytotoxicity against human PANC-1 cells assessed as reduction in cell viability incubated for 24 hrs in nutrient-deprived medium by WST-8 assay; assay type: functional
[6] = target: RAC-alpha serine/threonine-protein kinase (Homo sapiens) (UniProt P31749); assay: Inhibition of Akt activation in human PANC-1 cells assessed as upregulation of LC3-II level at 1.25 to 5 uM incubated for 6 hrs in nutrient-deprived medium by Western blot analysis; assay type: cell-based; settings: dose 1.25-5 µM
[7] = target: RAC-alpha serine/threonine-protein kinase (Homo sapiens) (UniProt P31749); assay: Inhibition of Akt activation in human PANC-1 cells assessed as effect on Atg3 level at 1.25 to 5 uM incubated for 6 hrs in nutrient-deprived medium by Western blot analysis; assay type: cell-based; settings: dose 1.25-5 µM
PANC-1 [8] = assay: Inhibition of cell migration in human PANC-1 cells assessed as reduction in migration velocity at 20 uM measured every 15 min for 24 hrs in nutrient-rich Dulbecco's modified Eagle's medium by quantitative real-time cell migration assay; assay type: functional
[9] = target: RAC-alpha serine/threonine-protein kinase (Homo sapiens) (UniProt P31749); assay: Inhibition of Akt activation in human PANC-1 cells assessed as effect on Atg7 level at 1.25 to 5 uM incubated for 6 hrs in nutrient-deprived medium by Western blot analysis; assay type: cell-based; settings: dose 1.25-5 µM
PANC-1 [10] = assay: Inhibition of cell migration in human PANC-1 cells assessed as reduction in cell migration at 20 uM measured at 18 hrs in nutrient-rich Dulbecco's modified Eagle's medium by quantitative real-time cell migration assay relative to control; assay type: functional
PANC-1 [11] = assay: Inhibition of cell migration in human PANC-1 cells assessed as reduction in cell migration at 20 uM measured at 12 hrs in nutrient-rich Dulbecco's modified Eagle's medium by quantitative real-time cell migration assay relative to control; assay type: functional
[12] = target: RAC-alpha serine/threonine-protein kinase (Homo sapiens) (UniProt P31749); assay: Inhibition of Akt activation in human PANC-1 cells assessed as decrease in Akt phosphorylation at 5 uM incubated for 6 hrs in nutrient-deprived medium by Western blot analysis; assay type: cell-based
[13] = target: RAC-alpha serine/threonine-protein kinase (Homo sapiens) (UniProt P31749); assay: Inhibition of Akt activation in human PANC-1 cells assessed as effect on mTOR level at 1.25 to 5 uM incubated for 6 hrs in nutrient-deprived medium by Western blot analysis; assay type: cell-based; settings: dose 1.25-5 µM

Chain of RAC-alpha serine/threonine-protein kinase (Homo sapiens) (P31749 whole entry): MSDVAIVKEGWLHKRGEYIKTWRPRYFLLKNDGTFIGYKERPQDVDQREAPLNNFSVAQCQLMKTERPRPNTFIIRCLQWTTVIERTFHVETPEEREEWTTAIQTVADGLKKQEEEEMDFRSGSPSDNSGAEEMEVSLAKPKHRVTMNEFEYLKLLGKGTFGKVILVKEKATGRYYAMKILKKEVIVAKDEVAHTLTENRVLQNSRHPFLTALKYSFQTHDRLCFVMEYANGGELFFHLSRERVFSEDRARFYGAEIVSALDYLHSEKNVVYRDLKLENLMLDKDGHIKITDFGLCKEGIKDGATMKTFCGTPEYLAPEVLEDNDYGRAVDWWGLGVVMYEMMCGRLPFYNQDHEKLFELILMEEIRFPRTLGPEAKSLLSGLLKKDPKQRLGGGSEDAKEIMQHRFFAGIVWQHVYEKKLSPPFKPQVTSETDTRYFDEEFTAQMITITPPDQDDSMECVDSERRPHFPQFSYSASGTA

O=C(CCCCCCCCc1cccc(F)c1)N1CCCCC1
PC50 (PANC-1 [1]): 6.6 µM
IC50 (PANC-1 [2]): > 100 µM
selectivity ratio [3]: > 15.2

Cc1ccc(CCCCCCCCC(=O)N2CCCCC2)cc1
PC50 (PANC-1 [1]): 4.1 µM
IC50 (PANC-1 [2]): > 100 µM
selectivity ratio [3]: > 24.4

Nc1ccn([C@@H]2O[C@H](CO)[C@@H](O)C2(F)F)c(=O)n1 [GEMCITABINE]
PC50 (PANC-1 [1]): >100 µM
IC50 (PANC-1 [2]): > 100 µM

O=C(/C=C/CCCCCCc1ccccc1)N1CCC(O)CC1
PC50 (PANC-1 [1]): 9.4 µM
IC50 (PANC-1 [2]): > 100 µM
selectivity ratio [3]: > 10.6

O=C(CCCCCCCCc1ccccc1)N1CCCCC1
inhibition [4]: inactive
Ratio (PANC-1 [5]): 7
inhibition [6]: Active
inhibition [7]: inactive
PC50 (PANC-1 [1]): 1.08 µM
Activity (PANC-1 [8]): 10.6 um2/s
inhibition [9]: inactive
inhibition at 20 µM (PANC-1 [10]): 78%
inhibition at 20 µM (PANC-1 [11]): 50%
inhibition [12]: Active
inhibition [13]: inactive
IC50 (PANC-1 [2]): > 100 µM
selectivity ratio [3]: > 90.9

O=C(/C=C\CCCCCCc1ccccc1)N1CCCCC1
PC50 (PANC-1 [1]): 2.3 µM
IC50 (PANC-1 [2]): > 100 µM
selectivity ratio [3]: > 43.5

O=C(/C=C/CCCCCCc1ccccc1)NCc1ccccc1
PC50 (PANC-1 [1]): 6.1 µM
IC50 (PANC-1 [2]): > 100 µM
selectivity ratio [3]: > 16.4

O=C(/C=C/CCCCCCc1ccccc1)N1CCCCCC1
PC50 (PANC-1 [1]): 3.1 µM
IC50 (PANC-1 [2]): > 100 µM
selectivity ratio [3]: > 32.3

O=C(CCCCCCCCc1cccc(Cl)c1)N1CCCCC1
PC50 (PANC-1 [1]): 4.3 µM
IC50 (PANC-1 [2]): > 100 µM
selectivity ratio [3]: > 23.3

O=C(/C=C/CCCCC#Cc1ccccc1)N1CCCCC1
PC50 (PANC-1 [1]): 2.2 µM
IC50 (PANC-1 [2]): > 100 µM
selectivity ratio [3]: > 45.5

O=C(/C=C/CCCCCCc1ccccc1)N1CCCCC1
PC50 (PANC-1 [1]): 1.7 µM
IC50 (PANC-1 [2]): > 100 µM
selectivity ratio [3]: > 58.8

O=C(CCCCCCCCc1ccc(O)cc1)N1CCCCC1
PC50 (PANC-1 [1]): 7.8 µM
IC50 (PANC-1 [2]): > 100 µM
selectivity ratio [3]: > 12.8

O=C(CCCCCCCCc1ccc2ccccc2c1)N1CCCCC1
PC50 (PANC-1 [1]): 6 µM
IC50 (PANC-1 [2]): 87 µM
selectivity ratio [3]: 14.5

S=C(CCCCCCCCc1ccccc1)N1CCCCC1
PC50 (PANC-1 [1]): 2.2 µM
IC50 (PANC-1 [2]): > 100 µM
selectivity ratio [3]: > 45.5

O=C(/C=C/CCCC/C=C/c1ccc2c(c1)OCO2)N1CCCCC1 [PIPERNONALINE]
PC50 (PANC-1 [1]): 7.2 µM
IC50 (PANC-1 [2]): 54.9 µM
selectivity ratio [3]: 7.6

O=C(CCCCCCCCc1ccc(C(F)(F)F)cc1)N1CCCCC1
PC50 (PANC-1 [1]): 3.2 µM
IC50 (PANC-1 [2]): 54 µM
selectivity ratio [3]: 16.9

O=C(CCCCCCCCc1ccccc1F)N1CCCCC1
PC50 (PANC-1 [1]): 4.6 µM
IC50 (PANC-1 [2]): 98.9 µM
selectivity ratio [3]: 21.5

O=C(CCCCCCCCCc1ccccc1)N1CCCCC1
PC50 (PANC-1 [1]): 6.5 µM
IC50 (PANC-1 [2]): > 100 µM
selectivity ratio [3]: > 15.4

O=C(/C=C/CCCCCCc1ccccc1)N1CCOCC1
PC50 (PANC-1 [1]): 12.5 µM
IC50 (PANC-1 [2]): > 100 µM
selectivity ratio [3]: > 8

O=C(CCCCCCCCC1CCCCC1)N1CCCCC1
PC50 (PANC-1 [1]): 12 µM
IC50 (PANC-1 [2]): > 100 µM
selectivity ratio [3]: > 8.3

O=C(CCCCCCc1ccccc1)N1CCCCC1
PC50 (PANC-1 [1]): 7.1 µM
IC50 (PANC-1 [2]): > 100 µM
selectivity ratio [3]: > 14.1

O=C(CCCCCCCc1ccccc1)N1CCCCC1
PC50 (PANC-1 [1]): 6.9 µM
IC50 (PANC-1 [2]): > 100 µM
selectivity ratio [3]: > 14.5

N#Cc1ccc(CCCCCCCCC(=O)N2CCCCC2)cc1
PC50 (PANC-1 [1]): 4 µM
IC50 (PANC-1 [2]): > 100 µM
selectivity ratio [3]: > 25

O=C(/C=C/CCCCCCc1ccccc1)Nc1ccccc1
PC50 (PANC-1 [1]): 8.8 µM
IC50 (PANC-1 [2]): > 100 µM
selectivity ratio [3]: > 11.4

O=C(/C=C/CCCCCCc1ccccc1)N1CCCC1
PC50 (PANC-1 [1]): 4.1 µM
IC50 (PANC-1 [2]): > 100 µM
selectivity ratio [3]: > 24.4

O=C(/C=C/CCCCCCc1ccccc1)N[C@H]1CC[C@H](O)CC1
PC50 (PANC-1 [1]): 52.1 µM
IC50 (PANC-1 [2]): > 100 µM
selectivity ratio [3]: > 1.9

O=C(CCCCCCCCCCc1ccccc1)N1CCCCC1
PC50 (PANC-1 [1]): 6.6 µM
IC50 (PANC-1 [2]): > 100 µM
selectivity ratio [3]: > 15.2

O=C(CCCCCCCCc1ccccc1Cl)N1CCCCC1
PC50 (PANC-1 [1]): 3.6 µM
IC50 (PANC-1 [2]): > 100 µM
selectivity ratio [3]: > 27.8

O=C(CCCOCCCCc1ccccc1)N1CCCCC1
PC50 (PANC-1 [1]): 26.6 µM
IC50 (PANC-1 [2]): > 100 µM
selectivity ratio [3]: > 3.8

O=C(CCCCCC/C=C/c1ccccc1)N1CCCCC1
PC50 (PANC-1 [1]): 9.6 µM
IC50 (PANC-1 [2]): > 100 µM
selectivity ratio [3]: 7.4

O=C(CCCCCCCCc1ccc(F)cc1)N1CCCCC1
PC50 (PANC-1 [1]): 3.5 µM
IC50 (PANC-1 [2]): 99.8 µM
selectivity ratio [3]: 28.5

COc1ccc(CCCCCCCCC(=O)N2CCCCC2)cc1
PC50 (PANC-1 [1]): 3.8 µM
IC50 (PANC-1 [2]): 89.3 µM
selectivity ratio [3]: 23.5

O=C(CCCCCCCCc1ccc(Cl)cc1)N1CCCCC1
PC50 (PANC-1 [1]): 3.3 µM
IC50 (PANC-1 [2]): 65.5 µM
selectivity ratio [3]: 19.8
